We go through three compounds from patent publication US9119847B2, “Neferine and the use thereof in treating huntington disease” (Macau University of Science and Technology, priority 2013, dated 2015).

The structures appear in SMILES notation.

For data set [1] the following is noted: ref. [14]; cited from earlier work.
The test system of data set [2] is EGFP-HDQ74 transfected Atg7 deficient MEFs. In words: Mutant huntingtin aggregates in EGFP-HDQ74 transfected Atg7 deficient MEFs. It counts as cell-based, mouse. Particulars: 7.5 μM neferine, 24 h, Atg7−/− cells (FIGS. 5A, 5B). The protocol: (§1) In brief, both EGFP-HDQ74 transfected Atg7 wild-type and deficient mouse embryonic fibroblasts (MEFs) grown on coverslips in a 6-well plate were treated with indicated concentrations of neferine. The cells were then fixed in 4% paraformaldehyde for 20 minutes at room temperature and then rinsed with PBS. Slides were mounted with FluorSave™ mounting media (Calbiochem, San Diego, Calif.) and examined by fluorescence microscopy. The number of cells with GFP-aggregates formation was examined under the Nikon ECLIPSE 80i microscope. Representative images were captured with CCD digital camera Spot RT3™ (Diagnostic Instruments, Inc., Melville, N.Y.). To quantify for the clearance of mutant huntingtin, the percentage of cells with GFP-aggregates was calculated by counting the number of the cells with […] in GFP-positive cells. A minimum of 150 cells from 3 randomly selected fields was scored.

Data set [3] concerns PC-12 cells. In words: Cytotoxicity, crystal violet staining cell viability assay. It counts as cell-based, rat. Particulars: 7.5 μM neferine, 24 hours, PC-12 cells (FIGS. 6A, 6B). How it is done:
The test compound of neferine was dissolved in dimethyl sulfoxide (DMSO) at a final concentration of 100 mmol/L and stored at −20° C. For cell viability assay measured by crystal violet staining, PC-12 cells were incubated in 35 mm disc followed by the addition of 7.5 μM neferine for 24 hours. The cells were then incubated with crystal violet for 10 minutes followed by a ddH2O wash. The stained cell images were captured by CCD digital camera Spot RT3™ under the Nikon ECLIPSE 80i microscope with 4× magnification. Cell viability was quantified by dissolving stained cells in 10% acetic acid (200 μL/well). The colorimetric reading of the solute mixture was then determined by spectrophotometer at OD 560 nm. The percentage of cell viability was calculated using the following formula: Cell viability (%)=Cells number treated/Cells number DMSO control×100. Data were obtained from three independent experiments.

Data set [4] concerns Atg7 wild-type mouse embryonic fibroblasts (Atg7+/+). In words: GFP-LC3 puncta in Atg7 wild-type MEFs. It counts as cell-based. As to conditions: 7.5 μM neferine, 24 h, Atg7+/+ MEFs (FIGS. 4A, 4B). The protocol: (§2) GFP-LC3 puncta formation was quantified as previously described. In brief, both Atg7 wild-type and deficient mouse embryonic fibroblasts (MEFs) grown on coverslips in a 6-well plate were treated with indicated concentrations of neferine. The cells were then fixed in 4% paraformaldehyde for 20 minutes at room temperature and then rinsed with PBS. Slides were mounted with FluorSave™ mounting media (Calbiochem, San Diego, Calif.) and examined by fluorescence microscopy. The number of GFP-positive cells with GFP-LC3 puncta formation was examined under the Nikon ECLIPSE 80i microscope. Representative images were captured with CCD digital camera Spot RT3™ (Diagnostic Instruments, Inc., Melville, N.Y.). To quantify for autophagy, the percentage of cells with punctate GFP-LC3 fluorescence was calculated by counting the number of the cells with punctate GFP-LC3 fluorescence in GFP-positive cells. A minimum of 150 cells from 3 randomly selected fields was scored.

Data set [5] deals with AMPK-mTOR signaling pathway. The data set can be described thus: Detection of mTOR signaling marker proteins (p-AMPK, p-p70S6K) and LC3-II by western blot. It counts as cell-based, rat. The protocol:
PC-12 cells were treated with neferine (7.5 μM) from 0-24 h. Cells treated with 0.3 μM of rapamycin (Rap) for 24 h were used as the positive control. Cell lysate was then harvested and analyzed for p-AMPK, AMPK, p-p70S6K, p70S6K and α-tubulin respectively. PC-12 cells were treated with 7.5 μM of neferine with or without AMPK inhibitor (compound C, CC, 5 μM) for 24 h for the detection of LC3-II marker. Cell lysates were analyzed for LC3 I/II and β-actin, respectively. After that, the membrane was further incubated with HRP-conjugated secondary antibodies for 60 minutes. Finally, protein bands were visualized by using the ECL Western Blotting Detection Reagents (Invitrogen).
On the technique in general: A western blot detects proteins with antibodies after separation by electrophoresis.

The subject of data set [6] is mutant huntingtin EGFP-HDQ 55/74. The data set can be described thus: Removal of mutant huntingtin EGFP-HDQ 55/74, immunoblotting against EGFP. Format: cell-based, rat. Particulars: 7.5 μM neferine, 24 hours, transfected PC-12 cells (FIG. 3). How it is done: PC-12 cells were transfected transiently with EGFP-HDQ 55/74 plasmids for 24 hours using Lipofectamine Plus LTX reagent (Invitrogen) according to the manufacturer's protocol. The transfected cells were then treated with 7.5 μM neferine for 24 hours. The removal of mutant huntingtin, EGFP-HDQ 55 and 74, was then quantitated by immunoblotting with antibody against EGFP.

Data set [7] has as its system EGFP-HDQ74 transfected Atg7 wild-type MEFs. In words: Mutant huntingtin aggregates in EGFP-HDQ74 transfected Atg7 wild-type MEFs. It counts as cell-based, mouse. As to conditions: 7.5 μM neferine, 24 h, Atg7+/+ cells (FIGS. 5A, 5B). The protocol: as §1
Data set [8] deals with PC-12 cells expressing GFP-LC3. The data set can be described thus: Quantification of neferine-mediated autophagy (GFP-LC3 puncta) in the presence of compound C. Format: cell-based, rat. As to conditions: 7.5 μM neferine plus compound C 5 μM, PC-12 cells (FIGS. 2B, 2C). How it is done:
GFP-LC3 puncta formation was quantified as previously described. In brief, PC-12 cells expressing GFP-LC3 were treated with 7.5 μM neferine in the presence of compound C (CC, 5 μM) for 12 h. The cells were then fixed in 4% paraformaldehyde for 20 minutes at room temperature and then rinsed with PBS. Slides were mounted with FluorSave™ mounting media (Calbiochem) and examined by fluorescence microscopy. To quantify for autophagy, the percentage of cells with punctate GFP-LC3 fluorescence was calculated by counting the number of the cells with punctate GFP-LC3 fluorescence in GFP-positive cells. A minimum of 150 cells from 3 randomly selected fields was scored.

The subject of data set [9] is Atg7-knockout mouse embryonic fibroblasts (Atg7−/−). The data set can be described thus: GFP-LC3 puncta in Atg7 deficient MEFs. Format: cell-based. Particulars: 7.5 μM neferine, 24 h, Atg7−/− MEFs (FIGS. 4A, 4B). How it is done:
as §2

Data set [10] deals with PC-12 cells. The data set can be described thus: Quantification of autophagy GFP-LC3 puncta in PC-12 cells. It counts as cell-based, rat. How it is done:
as §2, with “PC-12 cells” for “both Atg7 wild-type and deficient mouse embryonic fibroblasts (MEFs)”, “were” for “were treated with indicated concentrations of neferine. The cells were then”
The data of PC-12 cells with GFP-LC3 expression without any treatment of neferine was used as control.

The test system of data set [11] is PC-12 cells transfected with mutant huntingtin EGFP-HDQ 55 and 74. The data set can be described thus: MTT cytotoxicity assay in PC-12 cells expressing mutant huntingtin. It counts as cell-based, rat. Particulars: 7.5 μM neferine, 24 h, PC-12 cells with EGFP-HDQ 55 or EGFP-HDQ 74 (FIG. 7). The protocol: Cell cytotoxicity assay: Cytotoxicity was assessed using the 3-(4,5-dimethylthiazol-2-yl)-2,5-diphenyltetrazolium bromide assay. PC-12 cells were transfected with or without mutant huntingtin EGFP-HDQ 55 and 74 for 16 h, the PC-12 cells (4000 cells) were then seeded on 96-well plates per well and then exposed to 7.5 μM of neferine for 24 h […]. Subsequently, 10 μL of MTT reagents was added to each well and incubated at 37° C. for 4 hours, followed by the addition of 100 μL solubilization buffer (10% SDS in 0.01 mol/L HCl) and overnight incubation. Absorbance at 585 nm was determined from each well on the following day. The percentage of cell viability was calculated using the following formula: Cell viability (%)=Cells number treated/Cells number DMSO control×100. Data was obtained from three independent experiments.
(Tetrazolium dyes change colour on reduction, which living cells bring about.)

Data set [12] deals with LC3-II. The data set can be described thus: Detection of autophagic marker protein LC3 conversion (western blot). Particulars: PC-12 cells, with lysosomal protease inhibitors E64d and pepstatin A (FIG. 1D). Format: cell-based, rat. The protocol:
After neferine treatments with or without autophagy inhibitor (3-Methyladenine, 3-MA) and protease inhibitor (10 μg/mL E64D and pepstain A), cells were harvested and lysed in RIPA buffer (Cell Signaling Technologies Inc., Beverly, Mass.). The cell lysates were then resolved by SDS-PAGE. After electrophoresis, the proteins from SDS-PAGE were transferred to nitrocellulose membrane which was then blocked with 5% non-fat dried milk for 60 minutes. The membrane was then incubated with LC3 primary antibodies (1:1000) in TBST overnight at 4° C. After that, the membrane was further incubated with HRP-conjugated secondary antibodies for 60 minutes. Finally, protein bands were visualized by using the ECL Western Blotting Detection Reagents (Invitrogen, Paisley, Scotland, UK).
To further confirm its autophagic activity, PC-12 cells treated with neferine were analyzed by western blot for LC3-I to LC3-II conversion. To differentiate that the autophagy effect was due to LC3-II formation, rather than failure of fusion between autophagosome and lysosomes, level of LC3-II was assayed with the presence of two lysosomal inhibitors (E64d and pepstatin A) that […].

The test system of data set [13] is mutant huntingtin. Particulars: mouse model of Huntington's disease, ref. [10]; cited from earlier work.
The mark [14] stands for this setting: 7.5 μM neferine, 0-24 h, PC-12 cells (FIG. 2A).

`O=c1c(O)c(-c2ccc(O)c(O)c2)oc2cc(O)ccc12` [fisetin]: in data set [1], the bioavailability result is listed as “poor bioavailability”, the effective concentration entry is given as “high effective concentration” and the lipophilicity entry was “low lipophilicity”.
As for `COc1ccc(C[C@@H]2c3cc(Oc4cc(C[C@@H]5c6cc(OC)c(OC)cc6CCN5C)ccc4O)c(OC)cc3CCN2C)cc1` [neferine], in [2], the “clearance of mutant huntingtin EGFP-HDQ74 inclusions” value is recorded as “not in autophagy-deficient cells”. Moreover, the “cytotoxicity / morphological damage (crystal violet assay)” value in data set [3] is on record as “no significant morphological damage”. Besides, the GFP-LC3 puncta formation result in data set [4] is listed as “induce GFP-LC3 puncta formation”. Further, in data set [5] (7.5 μM neferine plus compound C 5 μM, 24 h, PC-12 cells, western blot (FIG. 2D)), the “LC3-II level in presence of AMPK inhibitor compound C” value is reported as “decrease in LC3-II level”. For the same compound, in [5] (setting [14]), the p70S6K phosphorylation result is given as “concomitant reduction in its downstream p70S6K phosphorylation” and the “phosphorylation of AMPK” value is on record as “activate the phosphorylation of AMPK in a time dependent manner”. For the same compound, in data set [6], the “clearance of overexpressed EGFP-tagged mutant huntingtin EGFP-HDQ 55” value was “enhanced the clearance” and the “clearance of overexpressed EGFP-tagged mutant huntingtin EGFP-HDQ 74” value is “enhanced the clearance”. In data set [7], the “clearance of mutant huntingtin EGFP-HDQ74 inclusions” value is “enhance the clearance of mutant huntingtin EGFP-HDQ74 inclusions”. For the same compound, the “neferine-induced GFP-LC3 puncta formation in presence of AMPK inhibitor compound C” value in data set [8] is listed as “significant reduction in neferine-induced GFP-LC3 puncta formation”. Moreover, in data set [9], the GFP-LC3 puncta formation result was “not in Atg7-knockout mouse embryonic fibroblasts”. Besides, the “percentage of cells with GFP-LC3 puncta formation” value in [10] (7.5 μM neferine, 24 h, PC-12 cells with GFP-LC3 expression, vs untreated control (FIGS. 1B, 1C)) is listed as “increased the percentage of cells with GFP-LC3 puncta formation significantly”. The “GFP-LC3 puncta formation in presence of autophagy inhibitor 3-MA” value in [10] (neferine plus 3-Methyladenine (3-MA), PC-12 cells) is “significant reduction in GFP-LC3 puncta formation”. In addition, the “cell death induced by mutant huntingtin (cell viability, MTT)” value in data set [11] is recorded as “attenuated cell death induced by mutant huntingtin”. The “rate of LC3-II formation (LC3-I to LC3-II conversion)” value in data set [12] is on record as “increases the rate of LC3-II formation”.
As to `C1COC(NC(C2CC2)C2CC2)=N1` [rilmenidine], the “toxicity of mutant huntingtin” value in [13] is on record as “attenuate the toxicity of mutant huntingtin”.
